Measured values taken from patent US20250213547A1, “METHODS OF TREATING NEUROLOGICAL DISEASES” (priority 2022, published 2025).
Where two headings read alike, the source gives them in different places.

Columns and labels:
clinical [1] = details: human, in vivo; for AUC: AUC24 / mean steady-state area under the curve
Procedure: Soticlestat was administered in tablet formulation during fasting condition. […] Blood samples were obtained before the first morning dose, and at 1, 3, and 5 hours post-dose. On days 11 and 21, blood samples were taken before the morning dose and 1 hour post-dose. In Part B, patients were administered 200 mg BID for days 31-40, followed by 300 mg BID for days 41-85. On days 31, 41, and 85, blood samples were taken before the morning dose. […] The AUC24 for doses 100, 200, and 300 mg BID were 562.5, 1437, and 2188 ng×h/mL, respectively.
Blood samples were collected before and after the morning dose on days 1, 11, and 21, and before and after the morning dose on days 31, 41, and 85.

[2] = both, human, in vivo
Procedure: (§1) The study enrolled 48 subjects in the single rising dose study. Subjects were sorted into six cohorts and randomly assigned to treatment or placebo groups.
(§2) A prior study of soticlestat dosing in dogs guided the safety margin of minimal and maximal single dose selection for human subjects. An initial dosage of 10 mg provided a 44-fold safety margin relative to the maximum safe dosage in dogs. […] Each dose trial contained two placebo subjects. Ascending doses were tested in 2 sentinel subjects at a time to determine safety and tolerability before including the full cohort.
The mean values in table 6 with the superscript “a” were derived from n=3 subjects and values with superscript “b” were derived from n=4 subjects.

[3] = Adult DEE patients (Part A/Part B): safety and tolerability; details: human, in vivo, 60 days
[4] = Multiple rising dose study: safety (TEAEs) in healthy subjects over 14 days; type: in vivo, human
Procedure: Subjects were monitored during the study and a full review was conducted after each rising dose. Safety data monitoring included vitals, physical and visual examinations, electrocardiogram, BMI, and clinical laboratory tests. […] Percentages are rounded to one decimal place. A subject with two or more different adverse events (AE) within the same levels of the MedDRA term and treatment is counted only once at that level using the most related or severe incident. A TEAE is defined as an AE or SAE that occurs or gets worse after receiving the first dose of study drug and within 30 days after the last dose of study drug.

clinical [5] = type: in vivo; details: human; for Cmax: mean
Description: The first-in-human clinical trial administered a single-rising dose and included 48 healthy men and women aged 19-55 with a body mass index between 18 kg/m2 and 30 kg/m2. […] Examples 2-5 herein further describes the trial protocol and the results, including data on the bioavailability of solution versus tablet (example 3), fed versus fasting patients (example 4), and PD data (example 5). The data obtained from this trial informed on the safe dosage range for future trials, and was included in the first-step of the modeling analysis described in example 12.
as §1, §2
The analytes and internal standards were extracted by solid phase extraction or by dilution. […] Multiple analyses of pooled samples (n=6) verified intra- and inter-assay accuracy with an acceptance criteria of within 15% (CV≤15%) or 20% (CV≤20%) for the LLOQ. PK parameters were analyzed from plasma and urine concentration time data using standard non-compartmental analysis methods with Phoenix WinNonlin™ version 6.3 (Certara, Princeton, N.J. USA). All statistical analyses were performed using SAS software version 9.2 (SAS Institute Inc., Cary, N.C. USA).

[6] = both sexes, in vivo, po, 200 mg
[7] = both sexes, in vivo, po, 600 mg
[8] = both sexes, in vivo, po, 900 mg
[9] = both sexes, in vivo, po, 1350 mg

O=C(c1cccnc1-c1ccncc1)N1CCC(O)(Cc2ccccc2)CC1 [soticlestat]
clearance (clinical [1]; 100 mg): 4320 mL/min
AUC (clinical [1]; 100 mg): 562 ng·h/mL
Cmax (clinical [1]; 100 mg, Cmax steady state, mean): 270 ng/mL
clearance (clinical [1]; 200 mg): 3260 mL/min
AUC (clinical [1]; 200 mg): 1440 ng·h/mL
Cmax (clinical [1]; 200 mg, Cmax steady state, mean): 640 ng/mL
clearance (clinical [1]; 300 mg): 3170 mL/min
AUC (clinical [1]; 300 mg): 2190 ng·h/mL
Cmax (clinical [1]; 300 mg, Cmax steady state, mean): 975 ng/mL
Cmax (clinical [1]; Study TAK-935-2001, 200 mg BID, Mean, read-out: Cmax, ss): 1270 ng/mL
number of TEAEs reported [2]: 29 TEAEs
Insomnia, n participants [3]: 3 n
Lethargy, n participants [3]: 2 n
Seizure, n participants [3]: 3 n
Deaths, number of subjects (%) ([4]; 100 mg QD, n = 6): 0 subjects (%)
Deaths, number of subjects (%) ([4]; 300 mg BID, n = 6): 0 subjects (%)
Deaths, number of subjects (%) ([4]; 300 mg QD, n = 6): 0 subjects (%)
Deaths, number of subjects (%) ([4]; 400 mg QD, n = 6): 0 subjects (%)
Mild TEAEs, number of subjects (%) ([4]; 400 mg QD, n = 6): 4 (66.7) subjects (%)
Related TEAEs, number of subjects (%) ([4]; 400 mg QD, n = 6): 4 (66.7) subjects (%)
Deaths, number of subjects (%) ([4]; 600 mg QD, n = 6): 0 subjects (%)
Mild TEAEs, number of subjects ([4]; both, human, in vivo, 14 days): 12 subjects
Moderate TEAEs, number of subjects ([4]; both, human, in vivo, 14 days): 1 subjects
TEAEs mild and transient ([4]; both, human, in vivo, 14 days): 91%
TEAEs, number of subjects ([4]; both, human, in vivo, 14 days): 14 subjects
number of TEAEs reported ([4]; human, in vivo): Forty-five
Not related TEAEs, number of subjects ([4]; human, in vivo, 14 days): 1 subjects
Related TEAEs, number of subjects ([4]; human, in vivo, 14 days): 13 subjects
SAEs, number of subjects ([4]; human, in vivo, 14 days): 0 subjects
Severe TEAEs, number of subjects ([4]; human, in vivo, 14 days): 1 subjects
TEAEs leading to halt, number of subjects ([4]; human, in vivo, 14 days): 2 subjects
Deaths, number of subjects ([4]; soticlestat total, n = 30): 0 subjects
CL renal (clinical [5]; both sexes, in vivo): 3.83 to 10.3 mL/min
Tmax (clinical [5]; both sexes, in vivo, po): 15 to 31.2 min
half-life (clinical [5]; both sexes, in vivo, po): 49.2 to 430 min
Tmax (clinical [5]; both sexes, in vivo, po, 15 mg): 15 min
Cmax (clinical [5]; both sexes, in vivo, po, 15 mg): 43.5 ng/mL
AUC(0-inf) (clinical [5]; both sexes, in vivo, po, 50 mg): 172 ng·h/mL
AUC(0-t) (clinical [5]; both sexes, in vivo, po, 50 mg): 169 ng·h/mL
Tmax (clinical [5]; both sexes, in vivo, po, 50 mg): 15 min
Vd/F (clinical [5]; both sexes, in vivo, po, 50 mg): 1500 L
Cmax (clinical [5]; both sexes, in vivo, po, 50 mg): 210 ng/mL
AUC(0-inf) (clinical [5]; [6]): 621 ng·h/mL
AUC(0-t) (clinical [5]; [6]): 563 ng·h/mL
Tmax (clinical [5]; [6]): 15 min
Vd/F (clinical [5]; [6]): 2240 L
Cmax (clinical [5]; [6]): 571 ng/mL
Tmax (clinical [5]; [7]): 31.2 min
Vd/F (clinical [5]; [7]): 993 L
Cmax (clinical [5]; [7]): 4550 ng/mL
AUC(0-inf) (clinical [5]; [8]): 7660 ng·h/mL
AUC(0-t) (clinical [5]; [8]): 7620 ng·h/mL
Vd/F (clinical [5]; [8]): 1230 L
Cmax (clinical [5]; [8]): 5080 ng/mL
AUC(0-inf) (clinical [5]; [9]): 13500 ng·h/mL
AUC(0-t) (clinical [5]; [9]): 13500 ng·h/mL
Vd/F (clinical [5]; [9]): 852 L
Cmax (clinical [5]; [9]): 7950 ng/mL
Vd/F (clinical [5]; both sexes, plasma, single oral solution dose 15 mg, read-out: Vz/F, mean): 732 L
time of second smaller plasma peak post-dose (clinical [5]; both, in vivo): approximately 10 hours
t1/2z, mean (clinical [5]; both, in vivo, po, 15 mg): 49.2 min
t1/2z, mean (clinical [5]; both, in vivo, po, 50 mg): 179 min
t1/2z, mean (clinical [5]; both, in vivo, po, 200 mg): 263 min
AUC(0-t), mean (clinical [5]; both, in vivo, po, 600 mg): 5790 ng·h/mL
AUC∞, mean (clinical [5]; both, in vivo, po, 600 mg): 5810 ng·h/mL
t1/2z, mean (clinical [5]; both, in vivo, po, 600 mg): 286 min
Tmax, median (clinical [5]; both, in vivo, po, 900 mg): 30 min
t1/2z, mean (clinical [5]; both, in vivo, po, 900 mg): 430 min
Cmax, mean (clinical [5]; both, in vivo, po, 1350 mg): 7953 ng/mL
t1/2z, mean (clinical [5]; both, in vivo, po, 1350 mg): 319 min
dose-proportionality slope, AUC(0-t) (log-log) (clinical [5]; in vivo): 1.38 (1.28, 1.48)
dose-proportionality slope, AUC∞ (log-log) (clinical [5]; in vivo): 1.42 (1.31, 1.53)
dose-proportionality slope, Cmax (log-log) (clinical [5]; in vivo): 1.22 (1.11, 1.32)
CL/F, mean (clinical [5]; in vivo, po, 15 mg): 689 L/h
CL/F, mean (clinical [5]; in vivo, po, 50 mg): 549 L/h
CL/F, mean (clinical [5]; in vivo, po, 200 mg): 355 L/h
CL/F, mean (clinical [5]; in vivo, po, 600 mg): 145 L/h
CL/F, mean (clinical [5]; in vivo, po, 900 mg): 124 L/h
CL/F, mean (clinical [5]; in vivo, po, 1350 mg): 112 L/h
